# Laboratory results: patent US4820695A, “C-20-dihydro-deoxy-(cyclic amino)-derivatives of macrolide antibiotics” (priority 1987, dated 1989)
# Read-outs that look alike come from different tables or passages of the source.
# Tests used:
# [1] = tested on: Streptococcus pyogenes C203; test: ED50 in mice experimentally infected with S. pyogenes C203 (Table XI); format: in vivo; settings: doses given 1 and 4 hours postinfection
# Procedure: The C-20 modified derivatives of this invention have shown in vivo antimicrobial activity against experimentally-induced infections in laboratory animals. When two doses of test compound were administered to mice experimentally infected with S. pyogenes C203, the activity observed was measured as an ED50 value [effective dose in mg/kg to protect 50% of the test animals: see Warren Wick, et al., J. Bacteriol. 81, 233-235 (1961)].
# ^a mg/kg × 2; doses given 1 and 4 hours postinfection
# [2] = tested on: Staphylococcus epidermidis EPI1; test: MIC, standard agar-dilution assay (Table IX); format: cell-based
# [3] = tested on: Streptococcus pyogenes C203; test: MIC, standard agar-dilution assay (Table IX); format: cell-based; settings: read-out: MIC
# [4] = tested on: Streptococcus pneumoniae Park I; test: MIC, standard agar-dilution assay (Table IX); format: cell-based
# Staphyloccus aureus X1.1 = test: MIC, standard agar-dilution assay (Table IX); format: cell-based, Staphylococcus aureus; settings: Staphylococcus aureus, read-out: MIC
# [5] = tested on: Haemophilus influenzae C.L.; test: MIC, standard agar-dilution assay (Table IX); format: cell-based; settings: Ampicillin-sensitive strain, read-out: MIC
# Staphylococcus aureus = test: MIC, broth-dilution microtiter test (Table X); format: cell-based; settings: read-out: MIC
# Text: (§1) The MIC's in Table X were obtained using conventional broth-dilution microtiter tests.
# [6] = tested on: Mycoplasma gallisepticum 29C; test: MIC, broth-dilution microtiter test (Table X); format: cell-based; settings: Mycoplasmoides gallisepticum, read-out: MIC
# Text: as §1
# Mycoplasma synoviae 40A = test: MIC, broth-dilution microtiter test (Table X); format: cell-based; settings: Mycoplasmopsis synoviae, read-out: MIC
# Text: as §1
# [7] = tested on: Pasteurella multocida 60A; test: MIC, broth-dilution microtiter test (Table X); format: cell-based; settings: Avian isolate, read-out: MIC
# Text: as §1
# [8] = tested on: Mycoplasma hyopneumoniae S5972; test: MIC, broth-dilution microtiter test (Table X); format: cell-based; settings: Mesomycoplasma hyopneumoniae, read-out: MIC
# Text: as §1
# Mycoplasma hyorhinis 29E = test: MIC, broth-dilution microtiter test (Table X); format: cell-based; settings: read-out: MIC
# Text: as §1
# [9] = tested on: Pasteurella hemolytica 22C; test: MIC, broth-dilution microtiter test (Table X); format: cell-based; settings: read-out: MIC
# Text: as §1
# [10] = tested on: Pasteurella multocida 17E; test: MIC, broth-dilution microtiter test (Table X); format: cell-based; settings: Bovine isolate, read-out: MIC
# Text: as §1
# Streptococcus sp. 19F = test: MIC, broth-dilution microtiter test (Table X); format: cell-based; settings: read-out: MIC
# Text: as §1
# [11] = tested on: Staphylococcus aureus S13E; test: MIC, standard agar-dilution assay (Table IX); format: cell-based; settings: Staphylococcus aureus, S13E
# [12] = tested on: Staphylococcus aureus V41; test: MIC, standard agar-dilution assay (Table IX); format: cell-based; settings: Staphylococcus aureus V41, Penicillin-resistant strain, read-out: MIC
# Escherichia coli TEM = test: MIC, standard agar-dilution assay (Table IX); format: cell-based; settings: read-out: MIC
# [13] = tested on: Streptococcus Group D 2041; test: MIC, standard agar-dilution assay (Table IX); format: cell-based; settings: GROUPD2041, read-out: MIC
# [14] = tested on: Staphylococcus epidermidis 222; test: MIC, standard agar-dilution assay (Table IX); format: cell-based; settings: read-out: MIC
# [15] = tested on: Streptococcus Group D X66; test: MIC, standard agar-dilution assay (Table IX); format: cell-based; settings: read-out: MIC
# [16] = Titratable groups in 66% aqueous DMF (Tables XIV-XVI); format: physicochemical
# Text: ^c Run in 66% aqueous DMF
# ^d Run in 66% aqueous DMF
# Escherichia coli EC14 = test: MIC, standard agar-dilution assay (Table IX); format: cell-based; settings: read-out: MIC
# [17] = tested on: Staphylococcus aureus X400; test: MIC, standard agar-dilution assay (Table IX); format: cell-based; settings: Staphylococcus aureus X400, Methicillin-resistant strain, read-out: MIC
# Escherichia coli N10 = test: MIC, standard agar-dilution assay (Table IX); format: cell-based; settings: read-out: MIC
# Klebsiella X26 = test: MIC, standard agar-dilution assay (Table IX); format: cell-based; settings: read-out: MIC
# [18] = tested on: Haemophilus influenzae 76; test: MIC, standard agar-dilution assay (Table IX); format: cell-based; settings: Haemophilus influenzae 76, Ampicillin-resistant strain, read-out: MIC
# [19] = Staphylococcus epidermidis EPI1, agar-dilution, read-out: MIC
# [20] = Streptococcus pneumoniae Park I, agar-dilution, read-out: MIC
# [21] = Titratable groups (first value)
# [22] = Streptococcus pyogenes, C203, Oral, read-out: ED50
# [23] = Streptococcus pyogenes, C203, sc, Subcutaneous, read-out: ED50
SMILES,"MIC [2, 19] [µg/mL]",MIC [3] [µg/mL],"MIC [4, 20] [µg/mL]",MIC (Staphyloccus aureus X1.1) [µg/mL],MIC [5] [µg/mL],MIC (Staphylococcus aureus) [µg/mL],MIC [6] [µg/mL],MIC (Mycoplasma synoviae 40A) [µg/mL],MIC [7] [µg/mL],MIC [11] [µg/mL],MIC [12] [µg/mL],MIC (Escherichia coli TEM) [µg/mL],MIC [13] [µg/mL],MIC [14] [µg/mL],MIC [15] [µg/mL],MIC (Escherichia coli EC14) [µg/mL],MIC [17] [µg/mL],MIC (Escherichia coli N10) [µg/mL],MIC (Klebsiella X26) [µg/mL],MIC [18] [µg/mL],also measured
CCC1OC(=O)CC(O)C(C)C(OC2OC(C)C(O)C(N(C)C)C2O)C(CCN2CC(C)CC(C)C2)CC(C)C(=O)C=CC(C)=CC1COC1OC(C)C(O)C(OC)C1OC (racemic) [Compound D35],,,,,,,,,,,,,,,,,,,,,ED50 ([1]; Oral): 10.93 mg/kg × 2; ED50 ([1]; Subcutaneous): 0.88 mg/kg × 2
"CCC1OC(=O)CC(O)C(C)C(OC2OC(C)C(O)C(N(C)C)C2O)C(CCN2CCC(O)CC2)CC(C)C(=O)C=CC(C)=CC1COC1OC(C)C(O)C(OC)C1OC (stereo not drawn) [Compound D3, 20-DH-DO-20-(4-hydroxypiperidin-1-yl)desmycosin]",8,1,8,8,64,12.5,25,6.25,50,8,8,> 128,32,4,128,> 128,16,> 128,64,64,"MIC [8]: 6.25 µg/mL; MIC (Mycoplasma hyorhinis 29E): 50 µg/mL; MIC [9]: 50 µg/mL; MIC [10]: 50 µg/mL; MIC (Streptococcus sp. 19F): 12.5 µg/mL; pKa ([16]; Titratable groups): 8.7; pKa [16, 21]: 7.1"
"CCC1OC(=O)CC(O)C(C)C(OC2OC(C)CC(N(C)C)C2O)C(CCN2CCCCCC2)CC(C)C(=O)C=CC(C)=CC1COC1OC(C)C(O)C(OC)C1OC (stereo not drawn) [Compound D5a, 20-DH-DO-20-(Hexahydroazepin-1-yl)-4'-deoxydesmycosin]",0.5,0.25,0.25,0.5,8,0.39,0.78,0.195,3.12,0.5,0.5,8,2,0.25,2,128,1,64,8,8,"MIC [8]: 0.195 µg/mL; MIC (Mycoplasma hyorhinis 29E): 3.12 µg/mL; MIC [9]: 3.12 µg/mL; MIC [10]: 6.25 µg/mL; MIC (Streptococcus sp. 19F): 0.78 µg/mL; ED50 [1, 22]: 34 mg/kg; ED50 [1, 23]: 1.5 mg/kg"
"CCC1OC(=O)CC(O)C(C)C(OC2OC(C)C(O)C(N(C)C)C2O)C(CCN2CCC(N3CCCCC3)CC2)CC(C)C(=O)C=CC(C)=CC1COC1OC(C)C(O)C(OC)C1OC (stereo not drawn) [Compound D13, 20-DH-DO-20-[(4-piperidino)piperidin-1-yl]desmycosin]",1,2,2,0.5,16,3.12,6.25,1.56,12.5,1,1,> 128,2,0.25,2,> 128,1,> 128,16,8,"MIC [8]: 3.12 µg/mL; MIC (Mycoplasma hyorhinis 29E): 50 µg/mL; MIC [9]: 12.5 µg/mL; MIC [10]: 12.5 µg/mL; MIC (Streptococcus sp. 19F): 6.25 µg/mL; pKa ([16]; Titratable groups): 9.2; pKa [16, 21]: 6"
"CCC1OC(=O)CC(O)C(C)C(OC2OC(C)C(O)C(N(C)C)C2O)C(CCN2CCCC(C(=O)N(CC)CC)C2)CC(C)C(=O)C=CC(C)=CC1COC1OC(C)C(O)C(OC)C1OC (stereo not drawn) [Compound D15, 20-DH-DO-20-[3-(N,N-diethylcarbamoyl)piperidin-1-yl]desmycosin]",2,0.5,1,2,32,6.25,3.12,1.56,12.5,2,2,64,32,1,32,> 128,4,> 128,32,32,"MIC [8]: 3.12 µg/mL; MIC (Mycoplasma hyorhinis 29E): > 50 µg/mL; MIC [9]: 25 µg/mL; MIC [10]: 12.5 µg/mL; MIC (Streptococcus sp. 19F): 12.5 µg/mL; pKa ([16]; Titratable groups): 8.6; pKa [16, 21]: 7.4"
"CCC1OC(=O)CC(O)C(C)C(OC2OC(C)C(O)C(N(C)C)C2O)C(CCN2CCCC(C)(C)C2)CC(C)C(=O)C=CC(C)=CC1COC1OC(C)C(O)C(OC)C1OC (stereo not drawn) [Compound D40, 20-DH-DO-20-(3,3-dimethylpiperidin-1-yl)desmycosin]",0.5,0.25,2,0.5,4,,,,,0.5,0.5,16,8,0.25,4,64,0.5,64,16,8,
"CCC1OC(=O)CC(O)C(C)C(OC2OC(C)C(O)C(N(C)C)C2O)C(CCN2CCCCCC2)CC(C)C(=O)C=CC(C)=CC1COC1OC(C)C(O)C(O)C1OC (stereo not drawn) [Compound L4, 20-DH-DO-20-(hexahydroazepin-1-yl)lactenocin]",2,1,8,2,16,6.25,12.5,1.56,12.5,2,2,> 128,16,1,32,> 128,2,> 128,16,16,"MIC [8]: 1.56 µg/mL; MIC (Mycoplasma hyorhinis 29E): 50 µg/mL; MIC [9]: 25 µg/mL; MIC [10]: 12.5 µg/mL; MIC (Streptococcus sp. 19F): 6.25 µg/mL; pKa ([16]; Titratable groups): 9.7; pKa [16, 21]: 8"
"CCC1OC(=O)CC(O)C(C)C(OC2OC(C)C(OC3CC(C)(O)C(O)C(C)O3)C(N(C)C)C2O)C(CCN2CCCCCCC2)CC(C)C(=O)C=CC(C)=CC1COC1OC(C)C(O)C(OC)C1OC (stereo not drawn) [Compound T6, 20-DH-DO-20-(octahydroazocin-1-yl)tylosin]",4,2,8,4,64,12.5,3.12,0.78,> 50,4,4,> 128,> 128,2,> 128,> 128,8,> 128,> 128,> 128,"MIC [8]: 12.5 µg/mL; MIC (Mycoplasma hyorhinis 29E): > 50 µg/mL; MIC [9]: 50 µg/mL; MIC [10]: > 50 µg/mL; MIC (Streptococcus sp. 19F): 50 µg/mL; ED50 [1, 22]: 44 mg/kg; ED50 [1, 23]: > 10 mg/kg"
"CCC1OC(=O)CC(O)C(C)C(OC2OC(C)C(OC3CC(C)(O)C(O)C(C)O3)C(N(C)C)C2O)C(CCN2CC3CCC(CC3)C2)CC(C)C(=O)C=CC(C)=CC1COC1OC(C)C(O)C(OC)C1OC (stereo not drawn) [Compound T13, 20-DH-DO-20-(3-azabicyclo[3.2.2]nonan-3-yl)tylosin]",,4,,4,128,6.25,1.56,1.56,> 50,4,4,> 128,> 128,2,128,> 128,8,> 128,> 128,128,"MIC ([2]; Staphylococcus epidermidis, EPI1): 4 µg/mL; MIC ([4]; Streptococcus pneumoniae): 16 µg/mL; MIC [8]: 25 µg/mL; MIC (Mycoplasma hyorhinis 29E): > 50 µg/mL; MIC [9]: 50 µg/mL; MIC [10]: > 50 µg/mL; MIC (Streptococcus sp. 19F): 50 µg/mL; ED50 [1, 22]: 30 mg/kg; ED50 [1, 23]: > 10 mg/kg"
